# From article PMC7700809 (Molecular Biomedicine, 2020)
# Key:
# [1] = system: SARS-CoV-2; experiment: microbe, parasite or virus in culture; type: cell-based; conditions: Severe acute respiratory syndrome coronavirus 2, Vero, read-out: EC50 antiviral replication effect
# [2] = system: SARS-CoV-2; experiment: microbe, parasite or virus in culture; type: cell-based
structure (smiles),measurement,setting,value
CCC(CC)COC(=O)[C@H](C)N[P@](=O)(OC[C@H]1O[C@@](C#N)(c2ccc3c(N)ncnn23)[C@H](O)[C@@H]1O)Oc1ccccc1 [Remdesivir],EC50,[1],240 nM
same,virus entry blocking,[2],could not block the virus entry
